Experimental data: ChEMBL document CHEMBL5252552, “Defined concatenated α6α1β3γ2 GABAA receptor constructs reveal dual action of pyrazoloquinolinone allosteric modulators” (Bioorg Med Chem, 2019)

Columns and labels:
[1] = target: T1, Gamma-aminobutyric acid receptor subunit alpha-6/beta-3/gamma-2 (Rattus norvegicus) (UniProt P18508+P30191+P63079); assay: Positive allosteric modulation of rat recombinant GABAA alpha6beta3alpha6-gamma2beta3 receptor expressed in Xenopus laevis oocytes assessed as maximal efficacy at -80 mV holding potential at 1 uM in presence of GABA EC1 to 1.5 by two-electrode voltage-clamp assay; format: cell-based; conditions: Oocyte, filed as positive allosteric modulator
[2] = target: T1, Gamma-aminobutyric acid receptor subunit alpha-6/beta-3/gamma-2 (Rattus norvegicus); assay: Positive allosteric modulation of rat recombinant GABAA alpha6beta3alpha6-gamma2beta3 receptor expressed in Xenopus laevis oocytes assessed as maximal efficacy at -80 mV holding potential at 3 uM in presence of GABA EC1 to 1.5 by two-electrode voltage-clamp assay; format: cell-based; conditions: Oocyte, filed as positive allosteric modulator
[3] = target: T1, Gamma-aminobutyric acid receptor subunit alpha-6/beta-3/gamma-2 (Rattus norvegicus); assay: Positive allosteric modulation of rat recombinant GABAA alpha6beta3alpha6-gamma2beta3 receptor expressed in Xenopus laevis oocytes assessed as maximal current under less potent phase in presence of GABA EC1 to 1.5 by two-electrode voltage-clamp assay relative to control; format: cell-based; conditions: Oocyte, filed as positive allosteric modulator
[4] = target: T1, Gamma-aminobutyric acid receptor subunit alpha-6/beta-3/gamma-2 (Rattus norvegicus); assay: Positive allosteric modulation of rat recombinant GABAA alpha6beta3alpha6-gamma2beta3 receptor expressed in Xenopus laevis oocytes assessed as maximal efficacy at -80 mV holding potential at 1 nM in presence of GABA EC1 to 1.5 by two-electrode voltage-clamp assay; format: cell-based; conditions: Oocyte
[5] = target: T1, Gamma-aminobutyric acid receptor subunit alpha-6/beta-3/gamma-2 (Rattus norvegicus); assay: Positive allosteric modulation of rat recombinant GABAA alpha6beta3alpha6-gamma2beta3 receptor expressed in Xenopus laevis oocytes assessed as maximal efficacy at -80 mV holding potential at 30 uM in presence of GABA EC1 to 1.5 by two-electrode voltage-clamp assay; format: cell-based; conditions: Oocyte, filed as positive allosteric modulator
[6] = target: T1, Gamma-aminobutyric acid receptor subunit alpha-6/beta-3/gamma-2 (Rattus norvegicus); assay: Positive allosteric modulation of rat recombinant GABAA alpha6beta3alpha6-gamma2beta3 receptor expressed in Xenopus laevis oocytes assessed as maximal efficacy at -80 mV holding potential at 10 nM in presence of GABA EC1 to 1.5 by two-electrode voltage-clamp assay; format: cell-based; conditions: Oocyte
[7] = target: T1, Gamma-aminobutyric acid receptor subunit alpha-6/beta-3/gamma-2 (Rattus norvegicus); assay: Positive allosteric modulation of rat recombinant GABAA alpha6beta3alpha6-gamma2beta3 receptor expressed in Xenopus laevis oocytes assessed as maximal efficacy at -80 mV holding potential at 30 nM in presence of GABA EC1 to 1.5 by two-electrode voltage-clamp assay; format: cell-based; conditions: Oocyte
[8] = target: T1, Gamma-aminobutyric acid receptor subunit alpha-6/beta-3/gamma-2 (Rattus norvegicus); assay: Positive allosteric modulation of rat recombinant GABAA alpha6beta3alpha6-gamma2beta3 receptor expressed in Xenopus laevis oocytes assessed as maximal efficacy at -80 mV holding potential at 300 nM in presence of GABA EC1 to 1.5 by two-electrode voltage-clamp assay; format: cell-based; conditions: Oocyte, filed as positive allosteric modulator
[9] = target: T1, Gamma-aminobutyric acid receptor subunit alpha-6/beta-3/gamma-2 (Rattus norvegicus); assay: Positive allosteric modulation of rat recombinant GABAA alpha6beta3alpha6-gamma2beta3 receptor expressed in Xenopus laevis oocytes assessed as maximal current at -80 mV holding potential under more potent phase in presence of GABA EC1 to 1.5 by two-electrode voltage-clamp assay relative to control; format: cell-based; conditions: Oocyte, filed as positive allosteric modulator
[10] = target: T1, Gamma-aminobutyric acid receptor subunit alpha-6/beta-3/gamma-2 (Rattus norvegicus); assay: Positive allosteric modulation of rat recombinant GABAA alpha6beta3alpha6-gamma2beta3 receptor expressed in Xenopus laevis oocytes assessed as maximal efficacy at -80 mV holding potential at 10 uM in presence of GABA EC1 to 1.5 by two-electrode voltage-clamp assay; format: cell-based; conditions: Oocyte, filed as positive allosteric modulator
[11] = target: T2, Gamma-aminobutyric acid receptor subunit alpha-6/beta-3/gamma-2 (Rattus norvegicus, UniProt P18508+P30191+P63079); assay: Positive allosteric modulation of rat recombinant GABAA alpha6beta3alpha6-gamma2beta3 receptor expressed in Xenopus laevis oocytes assessed as increase in GABA-induced current amplitude at -80 mV holding potential under more potent phase in presence of GABA EC1 to 1.5 by two-electrode voltage-clamp assay; format: cell-based, Oocyte
T2 sequence (P18508 whole entry): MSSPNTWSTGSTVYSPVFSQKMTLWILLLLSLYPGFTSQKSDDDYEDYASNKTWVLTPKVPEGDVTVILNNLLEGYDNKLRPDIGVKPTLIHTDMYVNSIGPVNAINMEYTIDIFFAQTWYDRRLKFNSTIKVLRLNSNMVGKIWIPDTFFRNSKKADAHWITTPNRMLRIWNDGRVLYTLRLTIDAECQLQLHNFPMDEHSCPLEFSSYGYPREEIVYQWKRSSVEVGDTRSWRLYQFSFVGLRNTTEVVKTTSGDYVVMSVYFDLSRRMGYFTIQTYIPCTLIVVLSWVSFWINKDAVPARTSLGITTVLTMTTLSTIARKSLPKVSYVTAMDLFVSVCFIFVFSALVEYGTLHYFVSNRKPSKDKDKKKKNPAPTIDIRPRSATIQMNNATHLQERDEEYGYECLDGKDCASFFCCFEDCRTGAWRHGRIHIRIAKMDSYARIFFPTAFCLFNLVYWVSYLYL
T2 sequence (P30191 whole entry): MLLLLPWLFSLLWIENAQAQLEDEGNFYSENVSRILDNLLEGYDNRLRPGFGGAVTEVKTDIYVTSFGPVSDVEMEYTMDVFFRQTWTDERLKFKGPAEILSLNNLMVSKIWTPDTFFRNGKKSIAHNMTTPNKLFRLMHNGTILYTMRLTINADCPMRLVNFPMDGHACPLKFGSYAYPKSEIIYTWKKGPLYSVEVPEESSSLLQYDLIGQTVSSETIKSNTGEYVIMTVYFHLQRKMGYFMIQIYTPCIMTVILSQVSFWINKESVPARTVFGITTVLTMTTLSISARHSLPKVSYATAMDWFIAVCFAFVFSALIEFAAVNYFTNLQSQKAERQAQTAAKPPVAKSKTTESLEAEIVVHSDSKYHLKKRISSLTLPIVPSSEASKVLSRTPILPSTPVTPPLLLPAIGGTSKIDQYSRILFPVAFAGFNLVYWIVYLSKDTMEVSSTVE
T2 sequence (P63079 whole entry): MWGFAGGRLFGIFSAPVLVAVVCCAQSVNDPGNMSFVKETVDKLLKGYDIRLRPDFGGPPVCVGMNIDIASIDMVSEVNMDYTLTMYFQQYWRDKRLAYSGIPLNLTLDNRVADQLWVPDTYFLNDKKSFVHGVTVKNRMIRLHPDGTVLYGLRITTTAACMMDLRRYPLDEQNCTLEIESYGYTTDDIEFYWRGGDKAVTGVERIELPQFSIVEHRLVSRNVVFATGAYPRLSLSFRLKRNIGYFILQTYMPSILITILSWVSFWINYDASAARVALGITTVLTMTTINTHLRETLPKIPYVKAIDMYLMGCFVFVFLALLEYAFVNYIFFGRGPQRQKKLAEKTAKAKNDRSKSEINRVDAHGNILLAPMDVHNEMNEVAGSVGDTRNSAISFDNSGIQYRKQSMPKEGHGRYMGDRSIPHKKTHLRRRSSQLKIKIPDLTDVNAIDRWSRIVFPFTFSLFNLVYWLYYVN

[12] = target: T1, Gamma-aminobutyric acid receptor subunit alpha-6/beta-3/gamma-2 (Rattus norvegicus); assay: Positive allosteric modulation of rat recombinant GABAA alpha6beta3alpha6-gamma2beta3 receptor expressed in Xenopus laevis oocytes assessed as maximal efficacy at -80 mV holding potential at 3 nM in presence of GABA EC1 to 1.5 by two-electrode voltage-clamp assay; format: cell-based; conditions: Oocyte
[13] = target: T1, Gamma-aminobutyric acid receptor subunit alpha-6/beta-3/gamma-2 (Rattus norvegicus); assay: Positive allosteric modulation of rat recombinant GABAA alpha6beta3alpha6-gamma2beta3 receptor expressed in Xenopus laevis oocytes assessed as maximal efficacy at -80 mV holding potential at 100 nM in presence of GABA EC1 to 1.5 by two-electrode voltage-clamp assay; format: cell-based; conditions: Oocyte, filed as positive allosteric modulator
[14] = target: T2, Gamma-aminobutyric acid receptor subunit alpha-6/beta-3/gamma-2; assay: Positive allosteric modulation of rat recombinant GABAA alpha6beta3alpha6-gamma2beta3 receptor expressed in Xenopus laevis oocytes assessed as increase in GABA-induced current amplitude at -80 mV holding potential under less potent phase in presence of GABA EC1 to 1.5 by two-electrode voltage-clamp assay; format: cell-based, Oocyte
[15] = target: T3, Gamma-aminobutyric acid receptor subunit alpha-1/alpha-6/beta-3/gamma-2 (Rattus norvegicus) (UniProt P18508+P30191+P62813+P63079); assay: Positive allosteric modulation of rat recombinant GABAA alpha6beta3alpha1-gamma2beta3 receptor expressed in Xenopus laevis oocytes assessed as maximal efficacy at -80 mV holding potential at 300 nM in presence of GABA EC1 to 1.5 by two-electrode voltage-clamp assay; format: cell-based; conditions: Oocyte
[16] = target: T3, Gamma-aminobutyric acid receptor subunit alpha-1/alpha-6/beta-3/gamma-2 (Rattus norvegicus); assay: Positive allosteric modulation of rat recombinant GABAA alpha6beta3alpha1-gamma2beta3 receptor expressed in Xenopus laevis oocytes assessed as maximal efficacy at -80 mV holding potential at 30 uM in presence of GABA EC1 to 1.5 by two-electrode voltage-clamp assay; format: cell-based; conditions: Oocyte, filed as positive allosteric modulator
[17] = target: T4, Gamma-aminobutyric acid receptor subunit alpha-1/beta-3/gamma-2 (Rattus norvegicus) (UniProt P18508+P62813+P63079); assay: Positive allosteric modulation of rat recombinant GABAA alpha1beta3alpha1-gamma2beta3 receptor expressed in Xenopus laevis oocytes assessed as maximal efficacy at -80 mV holding potential at 30 uM in presence of GABA EC1 to 1.5 by two-electrode voltage-clamp assay; format: cell-based; conditions: Oocyte, filed as positive allosteric modulator
[18] = target: T3, Gamma-aminobutyric acid receptor subunit alpha-1/alpha-6/beta-3/gamma-2 (Rattus norvegicus); assay: Positive allosteric modulation of rat recombinant GABAA alpha6beta3alpha1-gamma2beta3 receptor expressed in Xenopus laevis oocytes assessed as maximal efficacy at -80 mV holding potential at 30 nM in presence of GABA EC1 to 1.5 by two-electrode voltage-clamp assay; format: cell-based; conditions: Oocyte
[19] = target: T3, Gamma-aminobutyric acid receptor subunit alpha-1/alpha-6/beta-3/gamma-2 (Rattus norvegicus); assay: Positive allosteric modulation of rat recombinant GABAA alpha6beta3alpha1-gamma2beta3 receptor expressed in Xenopus laevis oocytes assessed as maximal efficacy at -80 mV holding potential at 100 nM in presence of GABA EC1 to 1.5 by two-electrode voltage-clamp assay; format: cell-based; conditions: Oocyte
Oocyte = assay: Positive allosteric modulation of rat recombinant GABAA alpha1beta3alpha1 receptor expressed in Xenopus laevis oocytes assessed as activation of maximal current at -80 mV holding potential in presence of GABA EC1 to 1.5 by two-electrode voltage-clamp assay; format: cell-based; conditions: filed as positive allosteric modulator
[20] = target: T2, Gamma-aminobutyric acid receptor subunit alpha-6/beta-3/gamma-2; assay: Positive allosteric modulation of rat recombinant GABAA alpha6beta3alpha6-gamma2beta3 receptor expressed in Xenopus laevis oocytes assessed as increase in GABA-induced current amplitude at -80 mV holding potential in presence of GABA EC1 to 1.5 by two-electrode voltage-clamp assay; format: cell-based, Oocyte
[21] = target: T1, Gamma-aminobutyric acid receptor subunit alpha-6/beta-3/gamma-2 (Rattus norvegicus); assay: Positive allosteric modulation of rat recombinant GABAA alpha6beta3alpha6-gamma2beta3 receptor expressed in Xenopus laevis oocytes assessed as maximal current at -80 mV holding potential in presence of GABA EC1 to 1.5 by two-electrode voltage-clamp assay relative to control; format: cell-based; conditions: Oocyte, filed as positive allosteric modulator
[22] = target: T4, Gamma-aminobutyric acid receptor subunit alpha-1/beta-3/gamma-2 (Rattus norvegicus); assay: Positive allosteric modulation of rat recombinant GABAA alpha1beta3alpha1-gamma2beta3 receptor expressed in Xenopus laevis oocytes assessed as maximal efficacy at -80 mV holding potential at 300 nM in presence of GABA EC1 to 1.5 by two-electrode voltage-clamp assay; format: cell-based; conditions: Oocyte
[23] = target: T4, Gamma-aminobutyric acid receptor subunit alpha-1/beta-3/gamma-2 (Rattus norvegicus); assay: Positive allosteric modulation of rat recombinant GABAA alpha1beta3alpha1-gamma2beta3 receptor expressed in Xenopus laevis oocytes assessed as maximal efficacy at -80 mV holding potential at 100 nM in presence of GABA EC1 to 1.5 by two-electrode voltage-clamp assay; format: cell-based; conditions: Oocyte
[24] = target: T4, Gamma-aminobutyric acid receptor subunit alpha-1/beta-3/gamma-2 (Rattus norvegicus); assay: Positive allosteric modulation of rat recombinant GABAA alpha1beta3alpha1-gamma2beta3 receptor expressed in Xenopus laevis oocytes assessed as maximal efficacy at -80 mV holding potential at 30 nM in presence of GABA EC1 to 1.5 by two-electrode voltage-clamp assay; format: cell-based; conditions: Oocyte
[25] = filed as positive allosteric modulator

Row | SMILES | Efficacy [1] | Efficacy [2] | %max [3] | Efficacy [4] | Efficacy [5] | Efficacy [6] | Efficacy [7, 25] | Efficacy [8] | %max [9] | Efficacy [10] | EC50 [11] | Efficacy [12] | Efficacy [13] | EC50 [14] | Efficacy [16] | Efficacy [17] | Efficacy [7] | Efficacy [6, 25] | EC50 [20] | %max [21] | other results
1 | COc1ccc(-n2nc3c4ccc(F)cc4[nH]cc-3c2=O)cc1 | 156% | 235% | 353% | 6% | 385% | 28% | 46% | 118% | 96% | 300% | 0.028 µM | 16% | 77% | 32 µM | – | – | – | – | – | – | –
2 | CCc1ccc2c3nn(-c4ccc(OC)cc4)c(=O)c-3c[nH]c2c1 | 127% | 216% | 4980% | 3% | 1940% | 21% | – | 74% | 57% | 621% | 0.023 µM | 4% | 54% | 299 µM | 1510% | 1040% | 29% | – | – | – | Efficacy [15]: 7%; Efficacy [18]: 5%; Efficacy [19]: 5%
3 | CN1C(=O)CN=C(c2ccccc2)c2cc(Cl)ccc21 | – | – | – | – | – | – | – | – | – | – | – | – | – | – | – | – | – | – | – | – | Activity (Oocyte): 30 nanoampere
4 | COc1ccc(-n2nc3c4ccc(OC)cc4[nH]cc-3c2=O)cc1 | 178% | 234% | 1630% | 31% | 702% | – | 105% | 143% | 113% | 400% | 0.008 µM | – | 125% | 118 µM | 446% | 71% | – | 75% | – | – | Efficacy [12, 25]: 59%
5 | C#Cc1ccc2c3nn(-c4ccc(OC)cc4)c(=O)c-3c[nH]c2c1 | 163% | 325% | – | 9% | 732% | 27% | – | 98% | – | 581% | – | 12% | 70% | – | – | – | 39% | – | 5 µM | 946% | –
6 | COc1ccc(-n2nc3c4ccc(Cl)cc4[nH]cc-3c2=O)cc1 | 180% | 387% | 796% | 6% | 703% | 22% | 40% | 94% | 56% | 688% | 0.01 µM | 13% | 65% | 17 µM | – | – | – | – | – | – | –
7 | COc1ccc(-n2nc3c4ccc(C(F)(F)F)cc4[nH]cc-3c2=O)cc1 | 147% | 216% | 2970% | 13% | 1370% | – | 62% | 100% | 49% | 590% | 0.013 µM | 23% | 83% | 100 µM | 1570% | 851% | – | 43% | – | – | Efficacy [15]: 10%; Efficacy [22]: 18%; Efficacy [23]: 14%; Efficacy [18]: 1%; Efficacy [19]: 5%; Efficacy [24]: 9%
8 | COc1ccc(-n2nc3c4ccc(C)cc4[nH]cc-3c2=O)cc1 | 234% | 456% | – | 25% | 1310% | – | 60% | 149% | – | 1020% | – | 31% | 100% | – | – | – | – | 40% | 13 µM | 2050% | –
9 | COc1ccc(-n2nc3c4ccccc4[nH]cc-3c2=O)cc1 | 152% | 214% | – | – | 1360% | 8% | – | 63% | – | 751% | – | 1% | 57% | – | – | – | 19% | – | 9 µM | 1480% | –
